The nature of data set [1]: Rat liver S9 fractions metabolic stability assay. Conditions: both, pooled liver S9 fractions.
The conditions of data set [2]: both, human, pooled liver S9 fractions.
A short description of data set [3]: Human hepatocytes metabolic stability assay. Format: in vitro ADME. The conditions noted are these: both sexes, cryopreserved hepatocytes; human hepatocytes 1×10^6 viable cells/mL. The method, then: (§1) Rat/Human Hepatocytes Metabolic Stability Assay
(§2) 2) 30 mM stock solutions of test compounds were prepared in DMSO. Thawing medium and supplement incubation medium (serum-free) were placed in a 37° C. water bath for at least 15 minutes prior to use. Stock solutions were diluted to 500 μM by combining 295 μL acetonitrile and 5 μL of 30 mM stock solution. 3) Vials of cryopreserved hepatocytes were removed from storage, ensured that vials remain at cryogenic temperatures. The pressure was removed by loosening and re-tightening the cap. The vials were thawed in a 37° C. water bath with gently shaking. Vials were kept in water bath until all ice crystals had dissolved and were no longer visible. Vials were sprayed with 70% ethanol before being transferred to a biosafety cabinet. And then the contents were poured into the 50 mL thawing medium conical tube. Vials were centrifuged at 100 g for 10 minutes at room temperature. Thawing medium was aspirated and hepatocytes were resuspended with serum-free incubation medium to yield ˜1.5×10^6 cells/mL. 4) Cell viability and density were counted using a Trypan Blue exclusion, and then cells were diluted with serum-free incubation medium to a working cell density of 1×10^6 viable cells/ml. 5) A portion of the hepatocytes at 1×10^6 viable cells/mL was boiled for 10 min prior to adding to the plate as negative control to eliminate the enzymatic activity so that little or no substrate turnover should be observed. The inactivated hepatocytes were used to prepare negative samples, which were used to exclude the misleading factor that resulted from instability of chemical itself 6) Aliquots of 247.5 μL hepatocytes were dispensed into each well of a 96-well non-coated plate. The plate was placed in the incubator on an orbital shaker at 500 rpm for approximately 10 minutes. 7) Aliquots of 2.5 μL of the 500 μM test compounds were added into respective wells of the non-coated 96-well plate to start the reaction. This assay was performed in duplicate. The plate was incubated in the incubator on an orbital shaker at 500 rpm for the designed time points. […]

Data set [4] in a line: Rat hepatocytes metabolic stability assay. Format: in vitro ADME. The conditions noted are these: male, cryopreserved hepatocytes; rat hepatocytes 1×10^6 viable cells/mL. The method, then: as §1, §2
The nature of data set [5]: Dog pharmacokinetic study. Format: in vivo, male Beagle dogs. The conditions noted are these: male, Beagle, plasma, IV. An excerpt:
For dog pharmacokinetic studies, male Beagle dogs were housed individually. Dogs in oral administration groups were fasted overnight before use but with free access to water supply. Dogs in IV groups have free access to food and water. […]

The conditions of data set [6]: background statement; cited from earlier work.
The conditions of data set [7]: background statement; cited from earlier work. The source holds these as a separate data set.
Data set [8] can be described thus: Rat pharmacokinetic study. The conditions noted are these: male, Sprague-Dawley, plasma, 50 mg/kg.

By half-life is commonly meant the time needed for the level to fall by half in the phase considered. Read a high half-life as slow decline. As a reminder, the AUC(0-t) is exposure summed from dosing to a finite time, without extrapolation to infinity. What is called bioavailability is the share of a dose that reaches the circulation, judged against a reference dose that is usually intravenous. By Cmax is commonly meant the maximum level reached in the sampled fluid or tissue. As usually defined, the Tmax is the time at which the peak concentration occurs.

Where a name gives a salt, the structure may show the parent alone. Read-outs that look alike come from different tables or passages of the source.

`O=C(O)CCCOC(=O)Oc1ccccc1` [Compound 32, 4-(phenoxycarbonyloxy)butanoic acid]: the figures for the half-life at 5 μM in data set [1] and in data set [2] were 8.5 min and 40.4 min, respectively.

Regarding `CC(C)[C@H](N)C(=O)OCCCC(=O)O` [Compound 58, (S)-4-(2-amino-3-methylbutanoyloxy)butanoic acid], the half-life at 5 μM was determined as 160 min in data set [3] and 46.7 min in data set [4].

Regarding `CC(C)C(=O)NCC(=O)OCCCC(=O)O` [Compound 64, 4-(2-isobutyramidoacetoxy)butanoic acid], the half-life at 5 μM was found to be 62.7 min in data set [1] and 58 min in data set [2].

`CC(=O)NCC(=O)OCCCC(=O)O` [Compound 66, 4-(2-acetamidoacetoxy)butanoic Acid]: the half-life at 5 μM was determined as 24.9 min in data set [3], 16.7 min in data set [4], 8 min in data set [1] and 9.21 min in data set [2].

`CC(=O)N[C@H](C(=O)OCCCC(=O)O)C(C)C` [Compound 67, (S)-4-(2-acetamido-3-methylbutanoyloxy)butanoic acid]: the half-life at 5 μM amounted to 220 min in data set [3], 131 min in data set [4], 74.2 min in data set [1] and 83.2 min in data set [2].

As to `CC(OC(=O)OCCCC(=O)O)OC(=O)c1ccccc1` (stereo not shown) [Compound 89, 4-(1-(benzoyloxy)ethoxycarbonyloxy)butanoic Acid], the half-life at 5 μM in data set [1] was found to be 17.5 min; in data set [2], 10.5 min.

`O=C(O)CCCO` [GHB sodium salt]: the AUC(0-t) was found to be 35700 ng·h/mL in data set [5] (GHB sodium salt 20 mg/kg), 25900 ng·h/mL in data set [8] (iv) and 6700 ng·h/mL in data set [8] (po). In addition, the bioavailability in data set [5] (GHB sodium salt 20 mg/kg (reference), read-out: Bioavailability F (%)) was determined as 100%; in data set [8] (iv), 100%; in data set [8] (po), 26%. The “reduction of the total number of cataplexy episodes” value in data set [6] is roughly 70%. For the same compound, in data set [7], the “plasma half-life (t1/2)” value was less than 60 min. Moreover, the Cmax in data set [8] (po) was determined as 7600 ng/mL. Also, in data set [8] (po), the Tmax was 17 min.

Regarding `Cl.N[C@@H](Cc1ccccc1)C(=O)OCCCC(=O)O` [hydrochloride salt of Compound 57, (S)-4-(2-amino-3-phenylpropanoyloxy)butanoic acid hydrochloride], the half-life at 5 μM in data set [1] came out at 2.48 min; in data set [2] it was 2.15 min.

These data come from patent publication US10941107B2, “Prodrugs of gamma-hydroxybutyric acid, compositions and uses thereof” (XW LABORATORIES INC., priority 2015, dated 2021).
